One series deals with PI3Kgamma (Homo sapiens (Human), UniProt P48736). The experiment in a line: Biochemical assay PI3Kgamma (Adapta TR-FRET). Particulars: read-out: PI3Kg/IC50. An excerpt:
The TR-FRET Adapta™ Universal Kinase Assay Kit was purchased from Invitrogen
Corporation (Carlsbad/CA, USA) (Cat. No. PV5099). The kit contains the following reagents: Adapta Eu-anti-ADP Antibody (Europium labeled anti-ADP antibody in HEPES buffered saline, Cat. No. PV5097), Alexa Fluor® 647-labeled ADP tracer (Alexa Fluor® 647-labeled ADP tracer in HEPES buffered saline, Cat. No. PV5098), proprietary TR-FRET dilution buffer pH 7.5 (Cat. No. PV3574).
PIK3CD substrate Phosphatidylinositol was obtained from Invitrogen (vesicules consisting of 2 mM PI in 50 mM HEPES pH7.5; Cat. No. PV5371).
Time-Resolved Fluorescence Resonance Energy Transfer (TR-FRET) is a technology based on energy transfer between two adjacent dyes, from an excited electron in one dye (the donor) to an electron of an adjacent dye (the acceptor) through resonance, then released as a photon. This energy transfer is detected by an increase in the fluorescence emission of the acceptor, and a decrease in the fluorescence emission of the donor. TR-FRET assays for protein kinases use a long-lifetime lanthanide Terbium or Europium chelates as the donor species which overcome interference from compound autofluorescence or light scatter from precipitated compounds, by introducing a delay after excitation by a flashlamp excitation source. Results are often expressed as a ratio of the intensities of the acceptor and donor fluorophores. The ratiometric nature of such a value corrects for differences in assay volumes between wells, as well as corrects for quenching effects due to colored compounds. The Adapta™ assay can be divided into two phases: a kinase reaction phase and an ADP detection phase. In the kinase reaction phase, all kinase reaction components are added to the well and the reaction is allowed to incubate for a set period of time specific for each kinase. After the reaction, a detection solution of Eu-labeled anti-ADP antibody, Alexa Fluor® 647-labeled ADP tracer, and EDTA (to stop the kinase reaction) are added to the assay well. ADP formed by the kinase reaction will displace the Alexa Fluor® 647-labeled ADP tracer from the antibody, resulting in a decrease in TR-FRET signal. In the presence of an inhibitor, the amount of ADP formed by the kinase reaction is reduced, and the resulting intact antibody-tracer interaction maintains a high TR-FRET signal. In the Adapta™ assay, the donor (Europium-anti-ADP antibody) is excited at 340 nm and will transfer its energy to the acceptor (Alexa Fluor® 647-labeled ADP tracer). The emission from the Alexa Fluor® 647 can be monitored with a filter centered at 665 nm because it is located between the emission peaks of the donor, which is measured at 615/620 nm.
50 nL of compound dilutions were dispensed onto white 384-well small volume polystyrene plate as described in section 2.2. Then 5 μL of PI3Kg and PI3Kd and lipid substrate (PI or PIP2:PS) followed by 5 μL of ATP (final assay volume 10 μL) are incubated at RT. The standard reaction buffer for the Adapta™ TR-FRET assay contained 10 mM Tris-HCl pH 7.5, 3 mM MgCl2, 50 mM NaCl, 1 mM DTT, 0.05% CHAPS. Reactions were stopped with 5 μL of a mixture of EDTA containing the Eu-labeled anti-ADP antibody and the Alexa Fluor® 647-labeled ADP tracer in TR-FRET dilution buffer (proprietary to IVG). Plates are read 15 to 60 mins later in a Synergy2 reader using an integration time of 0.4 seconds and a delay of 0.05 seconds. […] The standard compound NVP-BGT226 was used as a reference compound and included in all assay plates in the form of 16 dilution points in duplicate.
Data are analyzed using Excel fit software or Graphpad Prism. EC50 values were derived by fitting a sigmoidal dose-response curve to a plot of assay readout over inhibitor concentration. All fits were performed with the program XLfit4 (ID Business Solutions, Guildford, UK). […] All fits were performed with the program XLfit4 (ID Business Solutions, Guildford, UK).

The target of a further series is human mTOR (GST-mTOR) (Homo sapiens (Human), UniProt P42345). The experiment in a line: Binding assay mTor (Lanthascreen kinase binding assay). Particulars: Tracer-314. An excerpt:
Catalytically active human PI3Kα, PI3Kβ, PI3Kδ, and mTOR were cloned, expressed and purtified as described (Maira S M, Stauffer F, Brueggen J, Furet P, Schnell C, Fritsch C, Brachmann S, Chène P, de Pover A, Schoemaker K, Fabbro D, Gabriel D, Simonen M, Murphy L, Finan P, Sellers W, Garcia-Echeverria C (2008), Mol Cancer Ther. 7:1851-63 and Maira S M, Pecchi S, Brueggen J, Huh K, Schnell C, Fritsch C, Nagel T, Wiesmann M, Brachmann S, Dorsch M, Chène P, Schoemaker K, De Pover A, Menezes D, Fabbro D, Sellers W, Garcia-Echeverria C, Voliva CF (2011), Mol. Cancer Ther. accepted).
TR-FRET assays for protein kinases uses a long-lifetime lanthanide Terbium or Europium chelates as the donor species which overcome interference by compound autofluorescence or light scatter from precipitated compounds, by introducing a delay after excitation by a flashlamp excitation source. Results are often expressed as a ratio of the intensities of the acceptor and donor fluorophores. The ratiometric nature of such a value corrects for differences in assay volumes between wells, as well as corrects for quenching effects due to colored compounds.
Binding Assays are based on the binding and displacement of an Alexa Fluor® 647-labeled, ATP-competitive kinase inhibitors to the kinase of interest. Invitrogen's “Kinase Tracers” have been developed to address a wide range of kinase targets and are based on ATP-competitive kinase inhibitors, making them suitable for detection of any compounds that bind to the ATP site or to an allosteric site altering the conformation of the ATP site. Inhibitors that bind the ATP site include both Type I kinase inhibitors, which bind solely to the ATP site, and Type II inhibitors (e.g., Gleevec®/Imatinib, Sorafenib, BIRB-796), which bind to both the ATP site and a hydrophobic site exposed in the DFG-out (non-active) conformation. […] The sole exception was a substrate-competitive compound, and thus not a true allosteric inhibitor.
In contrast to most fluorescence-based kinase activity assays, LanthaScreen® Eu^3+ Kinase Binding Assays can be read continuously, which facilitates evaluation of compounds with slow binding kinetics. Also, unlike most activity assays, binding assays can be performed using either active or non-activated kinase preparations, which enables characterization of compounds that bind preferentially to non-activated kinases, such as Gleevec®/imatinib and some allosteric inhibitors.
In the Lanthascreen™ kinase binding assay, the donor (Eu^3+-anti-GST antibody) is excited at 340 nm and will transfer its energy to the acceptor (Alexa Fluor® 647-labeled ATP-competitive kinase inhibitor=Tracer-314). The emission from the Tracer-314 (Alexa Fluor® 647 inhibitor) can be monitored with a filter centered at 665 nm because it is located between the emission peaks of the donor, which is measured at 615/620 nm. The binding of both, the Tracer-314 and Eu^3+-anti-GST antibody, to the kinase results in a high degree of FRET from the Eu^3+-donor fluorophore to the Alexa-Fluor® 647-acceptor fluorophore on the Tracer-314. Binding of an inhibitor to the kinase competes for binding with the tracer, resulting in a loss of FRET.
50 nL of compound dilutions were dispensed onto white 384-well small volume polystyrene plate as described in section 2.2. Then 5 μL of GST-mTOR and Europium-anti-GST antibody followed by 5 μL of tracer-314 (final assay volume 10 μL) are incubated at RT. The standard reaction buffer for the Lanthascreen™ kinase binding assay contained 50 mM HEPES pH 7.5, 5 mM MgCl2, 1 mM EGTA, 0.01% Pluronic F-127. Plates are read 60 mins later in a Synergy2 reader using an integration time of 0.2 microseconds and a delay of 0.1 microseconds.
To calculate the emission ratio, the signal emitted at 665 nm from the acceptor (Alexa Fluor® 647-labeled Tracer-314) is divided by the signal emitted at 620 nm from the donor (Eu^3+ anti-GST antibody) […]

A short description of series [1]: Photostability in light stability chamber. The series is classed as physicochemical. Particulars: 1.0 mg/ml in ethanol, 19620 kJ/m^2 over 13 h, 15° C., UPLC 254 nm. How it is done:
Samples investigated for light stability were treated in a light stability chamber (Atlas CPS+, Serial Number 0704013). Solutions of 1.0 mg/ml in ethanol were prepared for each molecule and aliquots of 0.5 mL were dispensed into suitable micro tubes. All measurements were done in duplicate and compared to a reference wrapped in aluminium foil during light exposure. Solutions were exposed to 19620 kJ/m^2 over 13 h. Samples were kept at 15° C. during the experiment. […] The peak areas were automatically integrated, and the degradation percentage calculated as the difference between the corresponding peak area percentage of the reference sample and the average peak area percentage of the exposed samples (duplicate).

Chain of PI3Kgamma (P48736 whole entry, species assumed): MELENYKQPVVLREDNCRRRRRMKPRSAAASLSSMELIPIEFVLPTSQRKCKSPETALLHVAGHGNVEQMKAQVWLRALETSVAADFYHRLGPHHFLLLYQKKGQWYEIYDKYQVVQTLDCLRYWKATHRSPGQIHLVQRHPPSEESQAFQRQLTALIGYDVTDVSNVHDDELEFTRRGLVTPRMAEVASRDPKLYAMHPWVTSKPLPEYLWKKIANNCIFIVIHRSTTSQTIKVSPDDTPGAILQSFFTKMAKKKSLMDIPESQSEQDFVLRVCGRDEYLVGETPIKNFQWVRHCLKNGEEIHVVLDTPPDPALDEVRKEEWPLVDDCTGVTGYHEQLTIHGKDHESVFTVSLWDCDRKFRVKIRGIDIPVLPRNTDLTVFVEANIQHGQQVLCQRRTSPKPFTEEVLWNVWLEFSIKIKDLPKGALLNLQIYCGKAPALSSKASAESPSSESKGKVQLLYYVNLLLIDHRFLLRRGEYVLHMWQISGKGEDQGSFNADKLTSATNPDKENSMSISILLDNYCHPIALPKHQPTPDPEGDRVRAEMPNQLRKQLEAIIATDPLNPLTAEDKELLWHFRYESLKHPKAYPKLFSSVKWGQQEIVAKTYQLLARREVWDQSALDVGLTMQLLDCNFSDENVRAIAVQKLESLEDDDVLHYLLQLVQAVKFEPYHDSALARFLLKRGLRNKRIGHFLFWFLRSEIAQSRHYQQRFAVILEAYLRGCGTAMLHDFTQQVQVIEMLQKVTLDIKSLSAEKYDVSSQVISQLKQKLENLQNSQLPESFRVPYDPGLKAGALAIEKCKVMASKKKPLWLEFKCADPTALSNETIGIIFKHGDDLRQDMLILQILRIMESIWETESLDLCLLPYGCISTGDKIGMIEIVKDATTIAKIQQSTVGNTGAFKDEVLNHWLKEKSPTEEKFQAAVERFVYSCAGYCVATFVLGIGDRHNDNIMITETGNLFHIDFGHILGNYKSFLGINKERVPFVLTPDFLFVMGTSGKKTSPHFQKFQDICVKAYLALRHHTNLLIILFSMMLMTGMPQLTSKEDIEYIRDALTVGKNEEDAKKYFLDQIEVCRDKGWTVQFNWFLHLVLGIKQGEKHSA

Take `CC[C@H]1[C@@H](c2ccccc2)OC(=O)N1c1cc(-c2cnc(N)nc2C(F)(F)F)nc(N2CCOCC2)n1` [Example 4]: the IC50 on PI3Kgamma is 4.5 µM.

For the molecule `CC[C@H]1[C@H](c2cccc(OC)c2)OC(=O)N1c1cc(-c2cnc(N)nc2C(F)(F)F)nc(N2CCOCC2)n1` [Example 6], the figures for the IC50 on PI3Kgamma and on human mTOR (GST-mTOR) were 7 µM and 4.7 µM, respectively. For the same molecule, in series [1], the “% degradation in photostability assay (average)” value is 0%.
